# Structures can show the parent of a compound that is named as a salt.
# Legend:
# μ-receptors = biological target: T1, μ-receptors (Cavia porcellus, UniProt A0ACM8Q262); parameters: species or system guinea pig (male Hartley); conditions: read-out: Binding to opioid receptors, μ (IC50)
# T1 construct: [3H]DAGO (DAMGO) displacement
# κ-receptors = biological target: T2, κ-receptors (Cavia porcellus, UniProt P41144); assay: biochemical; assay type: binding, guinea pig (male Hartley)
# T2 construct: A raw preparation from brain membrane was made; tissue Japan SLC; host or cells: guinea pig whole brain without cerebellum, crude membranes
# T2 sequence (P41144 whole entry): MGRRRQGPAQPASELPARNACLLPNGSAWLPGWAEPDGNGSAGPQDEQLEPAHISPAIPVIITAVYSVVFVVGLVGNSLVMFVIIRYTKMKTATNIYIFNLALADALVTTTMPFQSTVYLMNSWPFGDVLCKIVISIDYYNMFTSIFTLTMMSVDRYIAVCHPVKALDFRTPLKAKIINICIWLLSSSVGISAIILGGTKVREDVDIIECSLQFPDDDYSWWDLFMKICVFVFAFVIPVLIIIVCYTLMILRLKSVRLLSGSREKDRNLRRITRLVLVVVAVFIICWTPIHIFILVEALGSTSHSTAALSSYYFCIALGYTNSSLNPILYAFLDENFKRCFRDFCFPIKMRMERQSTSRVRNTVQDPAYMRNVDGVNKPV
# [1] = test system: p-phenylquinone-induced writhing in mice; assay: animal or person; assay type: in vivo, mouse (male ddY mice); conditions: sc; for ED50: Mus musculus, read-out: Analgesic effect, phenylquinone-induced writhing, ED50; for Analgesic effect, phenylquinone-induced writhing at 320 μg/kg (analgesic-effective animals/all animals): mouse, in vivo
# T1 sequence (A0ACM8Q262 1-400): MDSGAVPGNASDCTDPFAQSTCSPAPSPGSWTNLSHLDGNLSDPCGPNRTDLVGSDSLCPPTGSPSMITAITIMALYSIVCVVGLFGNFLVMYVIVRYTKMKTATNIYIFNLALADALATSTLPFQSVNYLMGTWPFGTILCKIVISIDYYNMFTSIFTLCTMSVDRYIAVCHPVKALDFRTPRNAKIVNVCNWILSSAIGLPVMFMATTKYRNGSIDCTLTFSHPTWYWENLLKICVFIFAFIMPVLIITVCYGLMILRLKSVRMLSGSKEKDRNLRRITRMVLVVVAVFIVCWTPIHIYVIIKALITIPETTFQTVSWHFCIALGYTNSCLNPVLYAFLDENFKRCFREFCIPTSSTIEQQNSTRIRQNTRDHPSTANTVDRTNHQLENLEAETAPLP
Structure (SMILES),IC50 (μ-receptors),IC50 (κ-receptors),ED50 [1],"Analgesic effect, phenylquinone-induced writhing at 320 μg/kg (analgesic-effective animals/all animals) [1]"
"O=C1C[C@H](C(=O)N2CCCC[C@H]2CN2CCCC2)c2cc(Cl)c(Cl)cc21 (relative stereo) [Example 4-D1, 1-[(1S*)-5,6-dichloro-3-oxoindan-1-carbonyl)-(2S*)-2-pyrrolidin-1-ylmethyl)piperidine]",531 nM,1.4 nM,3.43 µg/kg,–
"O=C1C[C@@H](C(=O)N2CCCC[C@H]2CN2CCCC2)c2cc(Cl)c(Cl)cc21 (relative stereo) [Example 4-D2, 1-[(1R*)-5,6-dichloro-3-oxoindan-1-carbonyl](2S*)-2-(pyrrolidin-1-ylmethyl)piperidine]",–,366 nM,270 µg/kg,–
"O=C([C@H]1CCc2cc(Cl)c(Cl)cc21)N1CCSC[C@@H]1CN1CCCC1 (relative stereo) [Example 41-D1, 4-[(1S*)-5,6-dichloroindan-1-carbonyl]-(3S*)-3-(pyrrolidin-1-ylmethyl)thiomorpholine]",698 nM,0.67 nM,1.3 µg/kg,–
"O=C1CC(C(=O)N2CCCCC2CN2CCCC2)c2cc(Cl)c(Cl)cc21 (stereo not shown) [Example 1, 1-(5,6-dichloro-3-oxoindan-1-carbonyl)-2-(pyrrolidin-1-yl-methyl)piperidinehydrochloride]",1070 nM,1.75 nM,6.2 µg/kg,–
"O=C1C[C@H](C(=O)N2CCCC[C@H]2CN2CCCC2)c2cc(Cl)c(Cl)cc21 [Example 2-E1, 1-[(1S)-5,6-dichloro-3-oxoindan-1-carbonyl]-(2S)-2-(pyrrolidin-1-ylmethyl)piperidine]",232 nM,0.9 nM,1.73 µg/kg,–
"O=C1C[C@@H](C(=O)N2CCCC[C@H]2CN2CCCC2)c2cc(Cl)c(Cl)cc21 [Example 2-E2, 1-[(1R)-5,6-dichloro-3-oxoindan-1-carbonyl]-(2S)-2-(pyrrolidin-1-ylmethyl)piperidine]",–,258 nM,320 µg/kg,–
"O=C(Cc1ccc(Cl)c(Cl)c1)N1CCSCC1CN1CCCC1 (stereo not shown) [Example 17, 4-(3,4-dichlorophenylacetyl)-3-(pyrrolidin-1-ylmethyl)thiomorpholine hydrochloride]",–,1.1 nM,–,5/5
"O=C1CC(C(=O)N2CCSCC2CN2CCCC2)c2cc(Cl)c(Cl)cc21 (stereo not shown) [Example 36, 4-(5,6-dichloro-3-oxoindan-1-carbonyl)-3-(pyrrolidin-1-ylmethyl)thiomorpholine hydrochloride]",1140 nM,2.4 nM,3.4 µg/kg,–
"CN1CC[C@]23c4c5ccc(O)c4O[C@H]2[C@@H](O)C=C[C@H]3[C@H]1C5.Cl [Morphine HCl, reference compound]",–,–,–,2/5
